This is an account of results in US20250304596A1, “PYRAZINE DERIVATIVES AND USES THEREOF” (FOGHORN THERAPEUTICS INC., priority 2022, published 2025).

One test has as its target T1, HiBit-BRM fusion protein (Homo sapiens, UniProt P51531).
T1 construct: expressed in transfected cells
Description: HiBiT-BRM cell-based degradation assay (Nano-Glo HiBiT Lytic Detection, 24 h). As to conditions: stable HeLa cell line expressing HiBiT-BRM; for DC50: read-out: BRM HiBit Degradation IC50. A digest of the protocol: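 A stable HeLa line expressing HiBiT-BRM was treated for 24 h with compound in a 10-point, 3-fold series (30 μM final top dose). Remaining HiBiT-BRM was read by lytic LgBiT complementation luminescence. % degradation was normalised to DMSO (high control) and 2 μM reference BRM/BRG1 degrader (low control).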

For test [1], the target named is T2, HiBit-BRG1 fusion protein (Homo sapiens, UniProt P51532).
T2 construct: expressed in transfected cells
T2 sequence (P51532 whole entry, the tested form may be a part): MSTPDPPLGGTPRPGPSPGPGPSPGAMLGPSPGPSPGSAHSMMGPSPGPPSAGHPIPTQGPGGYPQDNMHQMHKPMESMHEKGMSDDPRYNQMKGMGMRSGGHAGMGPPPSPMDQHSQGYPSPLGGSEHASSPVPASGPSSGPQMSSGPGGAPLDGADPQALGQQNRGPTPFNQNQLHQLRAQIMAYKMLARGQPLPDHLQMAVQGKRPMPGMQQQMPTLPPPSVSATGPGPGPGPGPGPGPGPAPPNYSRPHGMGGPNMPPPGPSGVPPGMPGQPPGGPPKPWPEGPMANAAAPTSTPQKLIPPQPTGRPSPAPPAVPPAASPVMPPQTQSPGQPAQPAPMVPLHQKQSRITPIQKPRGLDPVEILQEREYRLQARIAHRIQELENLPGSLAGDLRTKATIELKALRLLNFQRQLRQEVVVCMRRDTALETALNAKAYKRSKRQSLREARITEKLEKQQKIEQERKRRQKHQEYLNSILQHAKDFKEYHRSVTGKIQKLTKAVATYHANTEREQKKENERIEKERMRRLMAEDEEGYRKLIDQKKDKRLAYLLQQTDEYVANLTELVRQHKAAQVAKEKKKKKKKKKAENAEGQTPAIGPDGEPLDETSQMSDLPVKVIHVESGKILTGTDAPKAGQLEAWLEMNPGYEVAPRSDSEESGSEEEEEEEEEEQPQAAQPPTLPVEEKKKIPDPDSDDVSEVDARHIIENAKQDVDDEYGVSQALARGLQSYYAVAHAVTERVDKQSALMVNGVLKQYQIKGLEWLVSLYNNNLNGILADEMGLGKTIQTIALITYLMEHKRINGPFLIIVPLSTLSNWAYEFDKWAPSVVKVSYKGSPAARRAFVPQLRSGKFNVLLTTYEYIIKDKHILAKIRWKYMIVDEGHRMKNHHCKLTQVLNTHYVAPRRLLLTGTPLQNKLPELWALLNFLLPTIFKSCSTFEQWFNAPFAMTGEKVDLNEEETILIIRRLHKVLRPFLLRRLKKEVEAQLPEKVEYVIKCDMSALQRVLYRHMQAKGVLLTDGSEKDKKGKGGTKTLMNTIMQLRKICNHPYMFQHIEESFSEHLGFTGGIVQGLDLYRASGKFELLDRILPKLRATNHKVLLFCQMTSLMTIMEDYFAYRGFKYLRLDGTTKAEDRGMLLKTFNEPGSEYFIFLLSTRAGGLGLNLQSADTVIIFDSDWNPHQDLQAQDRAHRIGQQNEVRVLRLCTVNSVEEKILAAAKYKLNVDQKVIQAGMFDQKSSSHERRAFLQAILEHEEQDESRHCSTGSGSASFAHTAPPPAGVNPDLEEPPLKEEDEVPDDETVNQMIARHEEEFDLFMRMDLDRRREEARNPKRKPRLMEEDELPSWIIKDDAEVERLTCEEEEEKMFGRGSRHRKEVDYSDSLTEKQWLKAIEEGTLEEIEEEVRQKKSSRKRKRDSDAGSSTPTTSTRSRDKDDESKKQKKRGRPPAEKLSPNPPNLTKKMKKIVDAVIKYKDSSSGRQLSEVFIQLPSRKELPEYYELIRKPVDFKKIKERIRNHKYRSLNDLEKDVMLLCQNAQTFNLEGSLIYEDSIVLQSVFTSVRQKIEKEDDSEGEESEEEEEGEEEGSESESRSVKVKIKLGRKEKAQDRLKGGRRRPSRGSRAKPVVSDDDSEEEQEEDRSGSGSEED
In words: HiBiT-BRG1 cell-based degradation assay (Nano-Glo HiBiT Lytic Detection, 24 h). As to conditions: stable HeLa cell line expressing HiBit-BRG1 and LgBit; for Dmax: read-out: BRG1 HiBit Degradation Maximum (%); for DC50: read-out: BRMG1 HiBit Degradation IC50. A digest of the protocol:
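HeLa cells stably expressing HiBit-BRG1 and LgBit, treated 24 h with 3-fold dilutions (10 points, duplicate, 30 μM final top dose). Luminescence read after Nano-Glo HiBiT lytic reagent; % degradation scaled between DMSO (high) and 2 μM reference BRM/BRG1 degrader (low control).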

A value given as a limit tells only on which side of the number the result lay.

T1 sequence (P51531 whole entry, the tested form may be a part): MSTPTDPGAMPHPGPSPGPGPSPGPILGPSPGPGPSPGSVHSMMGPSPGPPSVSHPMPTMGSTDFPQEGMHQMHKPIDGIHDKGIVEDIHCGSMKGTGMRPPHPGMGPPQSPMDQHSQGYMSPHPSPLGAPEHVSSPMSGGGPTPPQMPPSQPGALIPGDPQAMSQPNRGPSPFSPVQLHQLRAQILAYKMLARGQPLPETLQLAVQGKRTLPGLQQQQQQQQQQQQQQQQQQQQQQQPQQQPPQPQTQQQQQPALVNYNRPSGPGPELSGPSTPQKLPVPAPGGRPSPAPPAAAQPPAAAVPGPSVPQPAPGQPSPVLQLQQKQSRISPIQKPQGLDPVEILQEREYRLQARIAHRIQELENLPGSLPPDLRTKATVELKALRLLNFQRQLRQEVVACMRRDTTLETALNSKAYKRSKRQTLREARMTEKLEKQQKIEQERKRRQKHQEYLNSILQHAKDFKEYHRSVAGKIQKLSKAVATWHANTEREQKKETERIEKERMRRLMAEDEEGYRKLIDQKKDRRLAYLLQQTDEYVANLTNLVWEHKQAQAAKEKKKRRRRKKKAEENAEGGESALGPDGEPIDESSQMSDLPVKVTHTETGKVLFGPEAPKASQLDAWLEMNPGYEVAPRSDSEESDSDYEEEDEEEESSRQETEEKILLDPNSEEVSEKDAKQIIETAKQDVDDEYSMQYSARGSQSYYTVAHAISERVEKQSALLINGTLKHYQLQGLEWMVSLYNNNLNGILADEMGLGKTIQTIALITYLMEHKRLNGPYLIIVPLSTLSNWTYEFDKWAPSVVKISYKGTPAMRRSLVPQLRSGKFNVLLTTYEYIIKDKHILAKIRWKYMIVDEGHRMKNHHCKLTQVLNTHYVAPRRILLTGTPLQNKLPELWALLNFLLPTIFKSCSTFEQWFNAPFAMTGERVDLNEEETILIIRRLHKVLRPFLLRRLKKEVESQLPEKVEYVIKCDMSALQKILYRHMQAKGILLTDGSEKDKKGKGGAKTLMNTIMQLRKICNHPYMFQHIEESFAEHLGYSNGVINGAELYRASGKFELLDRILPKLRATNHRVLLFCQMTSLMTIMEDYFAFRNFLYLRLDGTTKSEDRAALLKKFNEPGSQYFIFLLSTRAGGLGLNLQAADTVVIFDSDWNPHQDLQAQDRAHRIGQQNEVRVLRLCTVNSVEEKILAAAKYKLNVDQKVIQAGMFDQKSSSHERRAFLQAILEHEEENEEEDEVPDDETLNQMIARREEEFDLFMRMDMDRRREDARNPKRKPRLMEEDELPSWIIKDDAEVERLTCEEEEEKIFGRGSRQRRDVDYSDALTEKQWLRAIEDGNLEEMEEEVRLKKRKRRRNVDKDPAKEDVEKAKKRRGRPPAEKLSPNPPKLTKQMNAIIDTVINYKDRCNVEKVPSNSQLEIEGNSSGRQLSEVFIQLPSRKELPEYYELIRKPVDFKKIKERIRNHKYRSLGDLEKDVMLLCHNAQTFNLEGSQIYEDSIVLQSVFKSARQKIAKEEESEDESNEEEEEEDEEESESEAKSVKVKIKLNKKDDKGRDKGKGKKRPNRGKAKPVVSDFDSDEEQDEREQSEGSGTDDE

With `Cc1cc(-c2cc([C@H](C(=O)N3C[C@H](O)C[C@H]3C(=O)N[C@@H](C)c3ccc(-c4scnc4C)cc3)C(C)C)on2)ccc1N1CCC(c2sc3nnc(-c4ccccc4O)cc3c2C)CC1` (single isomer, unassigned) [Compound 3], at HiBit-BRM fusion protein, the “BRM HiBit Degradation Maximum (%)” value is “A (“A” indicates maximum degradation ≥75%)” and the DC50 is > 10 nM. Also, in test [1], the Dmax was < 50% and the DC50 is > 1000 nM.

Regarding `Cc1ncsc1-c1ccc([C@H](C)NC(=O)[C@@H]2C[C@@H](O)CN2C(=O)[C@@H](c2cc(-c3ccc(N4CCC(c5sc6nnc(-c7ccccc7O)cc6c5C)CC4)nc3)no2)C(C)C)cc1` [Compound 59, (2S,4R)-4-hydroxy-1-((R)-2-(3-(6-(4-(3-(2-hydroxyphenyl)-5-methylthieno[2,3-c]pyridazin-6-yl)piperidin-1-yl)pyridin-3-yl)isoxazol-5-yl)-3-methylbutanoyl)-N-((S)-1-(4-(4-methylthiazol-5-yl)phenyl)ethyl)pyrrolidine-2-carboxamide], at HiBit-BRM fusion protein, the “BRM HiBit Degradation Maximum (%)” value is “A (“A” indicates maximum degradation ≥75%)” and the DC50 is < 10 nM. In test [1], the Dmax is < 50% and the DC50 was > 1000 nM.

Consider `Cc1ncsc1-c1ccc([C@H](C)NC(=O)[C@@H]2C[C@@H](O)CN2C(=O)[C@@H](c2cc(-c3ccc(N4CCC(c5sc6nnc(-c7ccccc7O)cc6c5C)CC4)cn3)no2)C(C)C)cc1` [Compound 34, (2S,4R)-4-hydroxy-1-((R)-2-(3-(5-(4-(3-(2-hydroxyphenyl)-5-methylthieno[2,3-c]pyridazin-6-yl)piperidin-1-yl)pyridin-2-yl)isoxazol-5-yl)-3-methylbutanoyl)-N-((S)-1-(4-(4-methylthiazol-5-yl)phenyl)ethyl)pyrrolidine-2-carboxamide], for which, at HiBit-BRM fusion protein, the “BRM HiBit Degradation Maximum (%)” value is “A (“A” indicates maximum degradation ≥75%)” and the DC50 is < 10 nM. Further, in test [1], the Dmax is < 50% and the DC50 is > 1000 nM.

`Cc1ncsc1-c1ccc([C@H](C)NC(=O)[C@@H]2C[C@@H](O)CN2C(=O)[C@@H](c2cc(-c3cnc(N4CC[C@H](c5sc6nnc(-c7ccccc7O)cc6c5C)C4)nc3)no2)C(C)C)cc1` [Compound 41, (2S,4R)-4-hydroxy-1-((R)-2-(3-(2-((S)-3-(3-(2-hydroxyphenyl)-5-methylthieno[2,3-c]pyridazin-6-yl)pyrrolidin-1-yl)pyrimidin-5-yl)isoxazol-5-yl)-3-methylbutanoyl)-N-((S)-1-(4-(4-methylthiazol-5-yl)phenyl)ethyl)pyrrolidine-2-carboxamide]: on HiBit-BRM fusion protein, the “BRM HiBit Degradation Maximum (%)” value was “A (“A” indicates maximum degradation ≥75%)” and the DC50 was < 10 nM. For the same molecule, in test [1], the Dmax is < 50% and the DC50 was > 1000 nM.

For `Cc1ncsc1-c1ccc([C@H](C)NC(=O)[C@@H]2C[C@@H](O)CN2C(=O)C(c2cc(N3CC4(C3)CN(c3cc5nnc(-c6ccccc6O)cc5s3)C4)no2)C(C)C)cc1` (stereo partly drawn) [Compound 67, (2S,4R)-4-hydroxy-1-(2-(3-(6-(3-(2-hydroxyphenyl)thieno[3,2-c]pyridazin-6-yl)-2,6-diazaspiro[3.3]heptan-2-yl)isoxazol-5-yl)-3-methylbutanoyl)-N-((S)-1-(4-(4-methylthiazol-5-yl)phenyl)ethyl)pyrrolidine-2-carboxamide], on HiBit-BRM fusion protein, the “BRM HiBit Degradation Maximum (%)” value is “A (“A” indicates maximum degradation ≥75%)” and the DC50 is < 10 nM. Further, the Dmax in test [1] is < 50%.

With `Cc1ncsc1-c1ccc([C@H](C)NC(=O)[C@@H]2C[C@@H](O)CN2C(=O)[C@@H](c2cc(-c3c(C)nc(N4CCC(c5sc6nnc(-c7ccccc7O)cc6c5C)CC4)nc3C)no2)C(C)C)cc1` [Compound 11, (2S,4R)-4-hydroxy-1-((R)-2-(3-(2-(4-(3-(2-hydroxyphenyl)-5-methylthieno[2,3-c]pyridazin-6-yl)piperidin-1-yl)-4,6-dimethylpyrimidin-5-yl)isoxazol-5-yl)-3-methylbutanoyl)-N-((S)-1-(4-(4-methylthiazol-5-yl)phenyl)ethyl)pyrrolidine-2-carboxamide], on HiBit-BRM fusion protein, the “BRM HiBit Degradation Maximum (%)” value is listed as “A (“A” indicates maximum degradation ≥75%)” and the DC50 is < 10 nM. For the same molecule, in test [1], the Dmax is > 50% and the DC50 was > 10 nM.

Regarding `Cc1ncsc1-c1ccc([C@H](C)NC(=O)[C@@H]2C[C@@H](O)CN2C(=O)[C@@H](c2cc(-c3cnc(N4CCC(c5cc6cc(-c7ccccc7O)nnc6s5)CC4)nc3)no2)C(C)C)cc1` [Compound 54, (2S,4R)-4-hydroxy-1-((R)-2-(3-(2-(4-(3-(2-hydroxyphenyl)thieno[2,3-c]pyridazin-6-yl)piperidin-1-yl)pyrimidin-5-yl)isoxazol-5-yl)-3-methylbutanoyl)-N-((S)-1-(4-(4-methylthiazol-5-yl)phenyl)ethyl)pyrrolidine-2-carboxamide], on HiBit-BRM fusion protein, the “BRM HiBit Degradation Maximum (%)” value is “A (“A” indicates maximum degradation ≥75%)” and the DC50 is < 10 nM. In test [1], the Dmax was < 50% and the DC50 is > 1000 nM.

`Cc1ncsc1-c1ccc([C@H](C)NC(=O)[C@@H]2C[C@@H](O)CN2C(=O)[C@@H](c2cc(N3CC(c4sc5nnc(-c6ccccc6O)cc5c4C)C3)no2)C(C)C)cc1` [Compound 19, (2S,4R)-4-hydroxy-1-((R)-2-(3-(3-(3-(2-hydroxyphenyl)-5-methylthieno[2,3-c]pyridazin-6-yl)azetidin-1-yl)isoxazol-5-yl)-3-methylbutanoyl)-N-((S)-1-(4-(4-methylthiazol-5-yl)phenyl)ethyl)pyrrolidine-2-carboxamide]: at HiBit-BRM fusion protein, the “BRM HiBit Degradation Maximum (%)” value was 2% and the DC50 is > 1000 nM. Moreover, in test [1], the Dmax was < 50% and the DC50 is > 1000 nM.

Take `Cc1ncsc1-c1ccc([C@H](C)NC(=O)[C@@H]2C[C@@H](O)CN2C(=O)[C@@H](c2cc(N3CCN(c4sc5nnc(-c6ccccc6O)cc5c4C)CC3)no2)C(C)C)cc1` [Compound 80, (2S,4R)-4-hydroxy-1-((R)-2-(3-(4-(3-(2-hydroxyphenyl)-5-methylthieno[2,3-c]pyridazin-6-yl)piperazin-1-yl)isoxazol-5-yl)-3-methylbutanoyl)-N-((S)-1-(4-(4-methylthiazol-5-yl)phenyl)ethyl)pyrrolidine-2-carboxamide]: at HiBit-BRM fusion protein, the “BRM HiBit Degradation Maximum (%)” value is “A (“A” indicates maximum degradation ≥75%)” and the DC50 is > 10 nM. Besides, in test [1], the Dmax is < 50%.

Regarding `Cc1ncsc1-c1ccc([C@H](C)NC(=O)[C@@H]2C[C@@H](O)CN2C(=O)[C@@H](c2cc(-c3cnc(N4C[C@H]5C[C@@H]4C[C@@H]5c4cc5cc(-c6ccccc6O)nnc5s4)nc3)no2)C(C)C)cc1` [Compound 22, (2S,4R)-4-hydroxy-1-((R)-2-(3-(2-((1R,4S,5S)-5-(3-(2-hydroxyphenyl)thieno[2,3-c]pyridazin-6-yl)-2-azabicyclo[2.2.1]heptan-2-yl)pyrimidin-5-yl)isoxazol-5-yl)-3-methylbutanoyl)-N-((S)-1-(4-(4-methylthiazol-5-yl)phenyl)ethyl)pyrrolidine-2-carboxamide], on HiBit-BRM fusion protein, the “BRM HiBit Degradation Maximum (%)” value is “A (“A” indicates maximum degradation ≥75%)” and the DC50 is < 10 nM. For the same molecule, in test [1], the Dmax was < 50% and the DC50 was > 1000 nM.

For the molecule `Cc1ncsc1-c1ccc([C@H](C)NC(=O)[C@@H]2C[C@@H](O)CN2C(=O)[C@@H](c2cc(-c3cnc(NC45CC(c6sc7nnc(-c8ccccc8O)cc7c6C)(C4)C5)nc3)no2)C(C)C)cc1` [Compound 44, (2S,4R)-4-hydroxy-1-((R)-2-(3-(2-((3-(3-(2-hydroxyphenyl)-5-methylthieno[2,3-c]pyridazin-6-yl)bicyclo[1.1.1]pentan-1-yl)amino)pyrimidin-5-yl)isoxazol-5-yl)-3-methylbutanoyl)-N-((S)-1-(4-(4-methylthiazol-5-yl)phenyl)ethyl)pyrrolidine-2-carboxamide], at HiBit-BRM fusion protein, the “BRM HiBit Degradation Maximum (%)” value is reported as “A (“A” indicates maximum degradation ≥75%)” and the DC50 was < 10 nM. For the same molecule, the Dmax in test [1] is > 75%.

On to `Cc1ncsc1-c1ccc([C@H](C)NC(=O)[C@@H]2C[C@@H](O)CN2C(=O)[C@@H](c2cc(-c3ccc(N4CC(c5sc6nnc(-c7ccccc7O)cc6c5C)C4)nn3)no2)C(C)C)cc1` [Compound 50, (2S,4R)-4-hydroxy-1-((R)-2-(3-(6-(3-(3-(2-hydroxyphenyl)-5-methylthieno[2,3-c]pyridazin-6-yl)azetidin-1-yl)pyridazin-3-yl)isoxazol-5-yl)-3-methylbutanoyl)-N-((S)-1-(4-(4-methylthiazol-5-yl)phenyl)ethyl)pyrrolidine-2-carboxamide], for which, on HiBit-BRM fusion protein, the “BRM HiBit Degradation Maximum (%)” value was “A (“A” indicates maximum degradation ≥75%)” and the DC50 was > 10 nM. Besides, in test [1], the Dmax is < 50% and the DC50 is > 1000 nM.

`Cc1ncsc1-c1ccc([C@H](C)NC(=O)[C@@H]2C[C@@H](O)CN2C(=O)[C@@H](c2cc(C3CCN(c4cnc(N5CCC(c6sc7nnc(-c8ccccc8O)cc7c6C)CC5)nc4)CC3)no2)C(C)C)cc1` [Compound 100, (2S,4R)-4-hydroxy-1-[(2R)-2-{3-[1-(2-{4-[3-(2-hydroxyphenyl)-5-methylthieno[2,3-c]pyridazin-6-yl]piperidin-1-yl}pyrimidin-5-yl)piperidin-4-yl]-1,2-oxazol-5-yl}-3-methylbutanoyl]-N-[(1S)-1-[4-(4-methyl-1,3-thiazol-5-yl)phenyl]ethyl]pyrrolidine-2-carboxamide]: at HiBit-BRM fusion protein, the “BRM HiBit Degradation Maximum (%)” value was “A (“A” indicates maximum degradation ≥75%)” and the DC50 was < 10 nM. In test [1], the Dmax is > 50% and the DC50 is > 10 nM.
